Among the data in ChEMBL document CHEMBL1201862, “PubChem BioAssay data set” (2004) are EC50, IC50 and AC50 values, retold here.

Active and inactive are the calls of the source.

For experiment [1], the target named is T1, Oxysterols receptor LXR-beta (Homo sapiens, UniProt P55055).
T1 sequence (P55055 whole entry): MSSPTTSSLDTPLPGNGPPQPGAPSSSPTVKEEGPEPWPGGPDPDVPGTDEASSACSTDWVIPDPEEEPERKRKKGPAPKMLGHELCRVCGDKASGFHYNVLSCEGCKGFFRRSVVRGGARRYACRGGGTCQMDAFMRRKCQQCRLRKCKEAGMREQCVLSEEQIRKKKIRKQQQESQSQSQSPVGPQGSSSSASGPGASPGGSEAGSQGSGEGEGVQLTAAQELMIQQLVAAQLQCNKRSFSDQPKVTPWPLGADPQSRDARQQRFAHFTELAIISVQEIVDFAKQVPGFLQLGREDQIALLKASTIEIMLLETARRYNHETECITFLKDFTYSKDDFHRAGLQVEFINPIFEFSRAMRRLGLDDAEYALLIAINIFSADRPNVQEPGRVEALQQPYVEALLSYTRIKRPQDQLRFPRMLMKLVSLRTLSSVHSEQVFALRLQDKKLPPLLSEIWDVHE
The format is functional, cell-based.

For experiment [2], the target named is T1, Oxysterols receptor LXR-beta. The format is functional, cell-based. This is another data set of the same source.
The target of experiment [3] is T2, COUP transcription factor 2 (Homo sapiens, UniProt P24468).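 Also: HEK293 cells transiently cotransfected with COUP-TFII expression vector and reporter; luciferase reporter luminescence driven by COUP-TFII from the pX2-168 reporter plasmid.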
T2 sequence (P24468 whole entry): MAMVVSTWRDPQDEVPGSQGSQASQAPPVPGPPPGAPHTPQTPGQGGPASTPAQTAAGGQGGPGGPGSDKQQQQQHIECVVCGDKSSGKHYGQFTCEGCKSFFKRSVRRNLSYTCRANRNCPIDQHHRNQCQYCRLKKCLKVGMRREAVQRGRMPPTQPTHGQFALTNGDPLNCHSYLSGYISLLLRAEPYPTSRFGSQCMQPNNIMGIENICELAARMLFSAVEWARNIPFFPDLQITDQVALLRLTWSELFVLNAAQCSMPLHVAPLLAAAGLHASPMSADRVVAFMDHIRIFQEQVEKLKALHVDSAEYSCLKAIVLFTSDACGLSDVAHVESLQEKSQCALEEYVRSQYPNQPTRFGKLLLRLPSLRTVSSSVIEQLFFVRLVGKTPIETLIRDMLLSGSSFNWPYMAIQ
The experiment is described as follows: Luminescence-based cell-based high throughput dose response assay to identify inhibitors of COUP-TFII (NR2F2). The format is functional.

The target of experiment [4] is T3, Heat shock factor protein 1 (Mus musculus, UniProt P38532).
T3 sequence (P38532 whole entry): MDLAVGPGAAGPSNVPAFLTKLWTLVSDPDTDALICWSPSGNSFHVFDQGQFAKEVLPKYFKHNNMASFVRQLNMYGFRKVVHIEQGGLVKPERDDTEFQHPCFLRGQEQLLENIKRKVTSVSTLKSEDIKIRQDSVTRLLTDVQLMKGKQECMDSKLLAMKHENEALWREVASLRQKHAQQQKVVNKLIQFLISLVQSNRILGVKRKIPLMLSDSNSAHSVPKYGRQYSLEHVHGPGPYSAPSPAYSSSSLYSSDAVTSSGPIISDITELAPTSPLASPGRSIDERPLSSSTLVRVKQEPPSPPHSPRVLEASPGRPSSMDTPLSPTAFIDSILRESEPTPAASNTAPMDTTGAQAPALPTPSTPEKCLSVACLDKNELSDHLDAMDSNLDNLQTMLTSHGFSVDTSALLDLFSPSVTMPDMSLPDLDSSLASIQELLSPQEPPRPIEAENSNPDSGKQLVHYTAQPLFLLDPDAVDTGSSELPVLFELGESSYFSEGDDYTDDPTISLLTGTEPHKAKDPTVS
Briefly: decrease of HSF1-responsive luciferase luminescence – cell-based, NIH3T3, dose retest, confirmation (AID 2382).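 Also: NIH3T3 fibroblasts with HSF1-driven luciferase reporter stressed by proteasome inhibitor MG132; luminescence from HSF1-driven luciferase expression after 8 hours of MG132 stress.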 The format is functional.

Experiment [5] concerns the target T4, 1-phosphatidylinositol 4,5-bisphosphate phosphodiesterase beta-3 (Homo sapiens, UniProt Q01970).
T4 sequence (Q01970 whole entry): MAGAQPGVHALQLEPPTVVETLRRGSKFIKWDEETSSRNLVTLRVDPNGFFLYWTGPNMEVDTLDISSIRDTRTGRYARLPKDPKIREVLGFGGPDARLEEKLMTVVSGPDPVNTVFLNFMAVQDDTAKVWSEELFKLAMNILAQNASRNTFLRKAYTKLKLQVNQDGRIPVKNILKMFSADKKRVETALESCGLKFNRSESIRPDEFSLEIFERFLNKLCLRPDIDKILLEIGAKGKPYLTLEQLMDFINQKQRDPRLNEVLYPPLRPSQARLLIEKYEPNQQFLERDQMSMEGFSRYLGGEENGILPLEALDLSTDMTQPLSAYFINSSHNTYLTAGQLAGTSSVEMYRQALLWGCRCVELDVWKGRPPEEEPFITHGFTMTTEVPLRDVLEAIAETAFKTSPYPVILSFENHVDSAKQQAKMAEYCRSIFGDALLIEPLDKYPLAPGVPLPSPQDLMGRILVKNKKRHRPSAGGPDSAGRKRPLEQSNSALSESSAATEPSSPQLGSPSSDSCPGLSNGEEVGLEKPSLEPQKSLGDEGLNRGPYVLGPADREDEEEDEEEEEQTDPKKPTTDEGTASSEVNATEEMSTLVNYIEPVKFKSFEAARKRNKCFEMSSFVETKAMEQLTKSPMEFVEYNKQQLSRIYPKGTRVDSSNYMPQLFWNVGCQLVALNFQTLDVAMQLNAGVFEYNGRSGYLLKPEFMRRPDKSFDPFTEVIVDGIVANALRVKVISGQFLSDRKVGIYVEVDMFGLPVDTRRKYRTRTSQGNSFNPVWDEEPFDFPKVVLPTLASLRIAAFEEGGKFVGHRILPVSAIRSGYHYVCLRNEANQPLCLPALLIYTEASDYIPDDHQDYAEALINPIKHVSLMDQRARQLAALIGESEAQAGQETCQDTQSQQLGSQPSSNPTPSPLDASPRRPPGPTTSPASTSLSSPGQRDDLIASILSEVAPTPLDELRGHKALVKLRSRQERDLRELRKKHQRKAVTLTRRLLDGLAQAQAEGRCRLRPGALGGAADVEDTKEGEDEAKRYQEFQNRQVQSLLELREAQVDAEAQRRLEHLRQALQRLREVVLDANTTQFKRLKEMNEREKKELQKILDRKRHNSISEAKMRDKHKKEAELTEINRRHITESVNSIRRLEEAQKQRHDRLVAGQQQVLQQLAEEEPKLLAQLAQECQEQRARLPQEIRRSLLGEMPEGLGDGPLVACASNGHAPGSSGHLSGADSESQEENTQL
Briefly: Fluorescence-based biochemical high throughput dose response assay to identify inhibitors of phospholipase C isozymes (PLC-B3).

A further experiment has as its target T5, Cytochrome P450 1A2 (Homo sapiens, UniProt P05177).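 Also: PubChem cytochrome P450 panel assay, CYP1A2 panel member.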
T5 sequence (P05177 whole entry): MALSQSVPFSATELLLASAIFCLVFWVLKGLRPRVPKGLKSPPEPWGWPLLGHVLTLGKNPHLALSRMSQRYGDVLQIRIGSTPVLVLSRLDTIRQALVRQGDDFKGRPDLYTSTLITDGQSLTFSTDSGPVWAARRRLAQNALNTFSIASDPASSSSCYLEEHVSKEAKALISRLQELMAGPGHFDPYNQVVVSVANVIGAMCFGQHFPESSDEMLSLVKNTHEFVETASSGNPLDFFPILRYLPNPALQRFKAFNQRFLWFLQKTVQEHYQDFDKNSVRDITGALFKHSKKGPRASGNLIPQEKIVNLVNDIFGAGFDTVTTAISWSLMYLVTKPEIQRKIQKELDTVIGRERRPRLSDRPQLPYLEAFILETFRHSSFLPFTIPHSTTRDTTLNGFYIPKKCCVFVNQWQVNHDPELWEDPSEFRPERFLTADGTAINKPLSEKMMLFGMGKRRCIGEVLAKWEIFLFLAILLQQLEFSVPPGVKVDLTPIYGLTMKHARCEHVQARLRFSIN

The target in experiment [6] is T6, 1-phosphatidylinositol 4,5-bisphosphate phosphodiesterase gamma-1 (Homo sapiens, UniProt P19174).
T6 sequence (P19174 whole entry): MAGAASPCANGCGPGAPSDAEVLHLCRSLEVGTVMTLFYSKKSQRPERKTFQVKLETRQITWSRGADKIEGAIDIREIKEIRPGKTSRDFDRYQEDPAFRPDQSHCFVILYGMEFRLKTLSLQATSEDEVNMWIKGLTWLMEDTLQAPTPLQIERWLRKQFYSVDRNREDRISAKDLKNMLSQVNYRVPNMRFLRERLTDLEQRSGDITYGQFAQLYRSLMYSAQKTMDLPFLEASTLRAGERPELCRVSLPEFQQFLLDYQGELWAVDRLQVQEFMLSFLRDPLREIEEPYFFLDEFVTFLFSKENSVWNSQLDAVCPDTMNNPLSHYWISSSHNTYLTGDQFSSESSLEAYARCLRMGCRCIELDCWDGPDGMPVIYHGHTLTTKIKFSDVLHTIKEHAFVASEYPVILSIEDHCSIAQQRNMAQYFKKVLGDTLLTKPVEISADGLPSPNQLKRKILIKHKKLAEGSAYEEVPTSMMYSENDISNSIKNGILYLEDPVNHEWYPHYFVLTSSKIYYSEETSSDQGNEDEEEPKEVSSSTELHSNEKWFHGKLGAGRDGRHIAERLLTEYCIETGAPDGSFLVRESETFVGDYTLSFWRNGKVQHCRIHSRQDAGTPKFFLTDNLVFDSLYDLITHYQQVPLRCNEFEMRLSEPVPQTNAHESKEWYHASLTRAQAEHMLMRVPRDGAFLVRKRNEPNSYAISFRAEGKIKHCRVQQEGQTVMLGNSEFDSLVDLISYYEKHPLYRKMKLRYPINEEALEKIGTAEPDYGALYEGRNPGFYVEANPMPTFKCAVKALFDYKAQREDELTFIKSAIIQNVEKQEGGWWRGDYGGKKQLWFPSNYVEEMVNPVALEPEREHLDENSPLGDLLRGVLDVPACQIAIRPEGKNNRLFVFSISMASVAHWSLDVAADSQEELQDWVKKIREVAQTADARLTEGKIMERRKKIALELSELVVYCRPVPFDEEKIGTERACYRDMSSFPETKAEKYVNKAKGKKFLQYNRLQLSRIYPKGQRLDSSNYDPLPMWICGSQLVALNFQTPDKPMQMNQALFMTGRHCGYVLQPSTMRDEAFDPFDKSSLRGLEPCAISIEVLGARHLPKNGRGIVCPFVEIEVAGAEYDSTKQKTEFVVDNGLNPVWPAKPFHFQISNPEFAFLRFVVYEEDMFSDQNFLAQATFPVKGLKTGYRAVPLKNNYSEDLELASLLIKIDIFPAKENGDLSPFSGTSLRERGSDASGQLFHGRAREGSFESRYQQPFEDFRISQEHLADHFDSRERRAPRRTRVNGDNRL
The experiment is described as follows: Counterscreen for inhibitors of phospholipase C isozymes (PLC-B3): Fluorescence-based biochemical high throughput dose response assay to identify inhibitors of phospholipase C isozymes (PLC-gamma1). (In general: Counterscreens check selectivity or assay interference.)

Experiment [7] in a line: IGROV1 cell killing – plate reader, dry powder samples, PAX8 inhibitor project, dose response (AID 743043). The note with it: IGROV-1. The format is functional, cell-based.
In a further experiment the target is Paired box protein Pax-8 (Homo sapiens, UniProt Q06710). The experiment is described as follows: PAX8 transcriptional activity inhibition in RMG-I – RMG-I cells, luciferase, cherry-pick, dose response (AID 687027).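 Also: luciferase reporter driven by Pax8 target thyroperoxidase promoter measured by SteadyGlo luminescence.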 The format is functional, cell-based.
Experiment [8] is described as follows: general mammalian cell viability loss – activator set, cherry-pick, cytotoxicity control for miR-122 modulator project, dose response (AID 720690).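 Also: HEK293T human cells scored for general mammalian cytotoxicity.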 The format is functional, cell-based.
A short description of experiment [9]: activation of miR-122 Renilla sensor silencing – cell-based, Huh7 psiCHECK-miR122, Renilla luciferase, cherry-picked, dose response (AID 651956).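 Also: huh7 hepatoma cells stably carrying a psiCHECK-2 miR-122 sensor plasmid; renilla luciferase signal reporting endogenous miR-122 activity after 48 h compound exposure.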 The format is functional.
Experiment [10] is described as follows: general cell-killing toxicity readout – plate reader, dry powder samples, cytotoxicity control for PAX8 inhibitor project, dose response (AID 743021). The format is functional, cell-based.
A short description of experiment [11]: OVCAR-3 cell viability loss – plate reader, dry powder samples, PAX8 inhibitor project, dose response (AID 743044). The format is functional, cell-based.

Sequence of Paired box protein Pax-8 (Q06710 whole entry): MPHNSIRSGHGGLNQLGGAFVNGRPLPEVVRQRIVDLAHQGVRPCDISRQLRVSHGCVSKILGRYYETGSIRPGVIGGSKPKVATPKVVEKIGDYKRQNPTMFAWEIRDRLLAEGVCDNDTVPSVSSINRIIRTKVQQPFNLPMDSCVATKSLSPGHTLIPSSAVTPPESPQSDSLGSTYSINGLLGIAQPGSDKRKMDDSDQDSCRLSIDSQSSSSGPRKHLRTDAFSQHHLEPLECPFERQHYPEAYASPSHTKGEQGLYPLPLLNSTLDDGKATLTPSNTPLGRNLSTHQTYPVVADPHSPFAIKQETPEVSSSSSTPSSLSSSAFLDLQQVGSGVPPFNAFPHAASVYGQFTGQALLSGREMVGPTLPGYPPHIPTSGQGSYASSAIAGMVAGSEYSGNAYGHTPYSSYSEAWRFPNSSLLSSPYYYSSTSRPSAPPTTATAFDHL

As to `Cc1nnc(SCC(=O)Nc2nsc(-c3ccc(C(C)(C)C)cc3)n2)s1`, the EC50 in experiment [1] is > 67.5 µM (inactive).
Regarding `O=c1c(=NNc2ccccc2Cl)c(=O)c2ccccc12`, the EC50 (in [2]; in the experiment “cells”) was > 67.5 µM (inactive) in each case.
For the compound `O=C1NC(=O)C(=NNc2ccc3c(c2)OCCO3)C(=O)N1`, in experiment [3], the IC50 is 6.75 µM (active). Besides, the half-maximal effective concentration (EC50) in experiment [4] was < 0.16 µM (active).
Regarding `CC(C)Oc1ccc(C(=O)Nc2ccc(NC(=O)c3ccco3)c(Cl)c2)cc1`, the IC50 in experiment [5] and in experiment [6] was > 122 µM (inactive) in each case. Besides, the half-maximal activity concentration (AC50) at Cytochrome P450 1A2 was 22.4 µM (inconclusive).
Turning to `Cc1ccccc1-c1ccc([C@@H]2[C@H](CO)N3CCCCN(C(=O)Nc4cccc(F)c4)C[C@@H]23)cc1`, the AC50 was 35.5 µM (active) in experiment [7]; 19.6 µM (active) at Paired box protein Pax-8; 13.7 µM (active) in experiment [8]; 9.43 µM (active) in [9]; 3.19 µM (active) in [10]; 20.4 µM (active) in experiment [11].
`CCNC(=O)Nc1ccc2c(c1)C(=O)N(C)[C@H]1CC[C@H](CC(=O)N[C@H](C)c3ccccc3)O[C@@H]1CO2`: the IC50 in [5] was 61.9 µM (inactive); in [6], 68.8 µM (inactive).

By EC50 is commonly meant the concentration giving half of the maximal effect. The IC50 is the concentration that gives 50% inhibition. The AC50 is the concentration giving half of the maximal activity seen.
